Laboratory results taken from ChEMBL document CHEMBL4842385, “Indirubin Derivatives as Dual Inhibitors Targeting Cyclin-Dependent Kinase and Histone Deacetylase for Treating Cancer” (J Med Chem, 2021).

Tests used:
[1] = target: T1, Protein deacetylase HDAC6 (Homo sapiens, UniProt Q9UBN7); assay: Inhibition of recombiant human HDAC6 using fluorogenic HDAC substrate 3 measured after 30 mins by fluorescence microplate reader assay
T1 sequence (Q9UBN7 whole entry): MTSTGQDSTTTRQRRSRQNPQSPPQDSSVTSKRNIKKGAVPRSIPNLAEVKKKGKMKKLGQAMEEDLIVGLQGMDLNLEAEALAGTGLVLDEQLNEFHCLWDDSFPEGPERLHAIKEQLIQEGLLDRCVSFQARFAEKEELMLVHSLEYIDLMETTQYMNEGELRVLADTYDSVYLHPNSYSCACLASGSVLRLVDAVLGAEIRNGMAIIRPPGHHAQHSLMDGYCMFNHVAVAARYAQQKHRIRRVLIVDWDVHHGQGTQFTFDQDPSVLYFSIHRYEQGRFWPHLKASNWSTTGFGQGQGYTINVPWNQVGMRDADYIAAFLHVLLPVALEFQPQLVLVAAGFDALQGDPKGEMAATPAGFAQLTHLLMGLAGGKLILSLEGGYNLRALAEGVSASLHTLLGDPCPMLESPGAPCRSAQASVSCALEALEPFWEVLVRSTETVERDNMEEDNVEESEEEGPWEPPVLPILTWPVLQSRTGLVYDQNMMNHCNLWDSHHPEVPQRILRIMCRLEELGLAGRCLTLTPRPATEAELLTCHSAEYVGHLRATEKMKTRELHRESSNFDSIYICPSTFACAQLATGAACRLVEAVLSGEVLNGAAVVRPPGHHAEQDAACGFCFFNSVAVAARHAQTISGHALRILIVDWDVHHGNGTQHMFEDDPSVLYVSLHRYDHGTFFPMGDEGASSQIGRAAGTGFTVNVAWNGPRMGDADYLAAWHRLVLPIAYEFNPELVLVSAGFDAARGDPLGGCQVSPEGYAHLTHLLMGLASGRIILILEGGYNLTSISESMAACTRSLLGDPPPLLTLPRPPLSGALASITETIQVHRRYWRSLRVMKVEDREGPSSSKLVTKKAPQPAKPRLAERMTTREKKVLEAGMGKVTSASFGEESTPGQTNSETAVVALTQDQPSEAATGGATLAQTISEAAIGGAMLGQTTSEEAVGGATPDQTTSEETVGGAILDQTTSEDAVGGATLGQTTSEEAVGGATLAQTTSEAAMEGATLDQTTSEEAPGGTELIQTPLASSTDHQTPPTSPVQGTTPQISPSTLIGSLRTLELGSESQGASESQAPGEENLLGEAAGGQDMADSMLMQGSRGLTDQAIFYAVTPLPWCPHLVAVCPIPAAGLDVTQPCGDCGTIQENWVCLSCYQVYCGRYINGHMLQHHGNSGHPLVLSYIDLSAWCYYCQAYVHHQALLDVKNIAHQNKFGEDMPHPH

CDK2/Cyclin A2 = CDK2/Cyclin A2 (Homo sapiens, UniProt P24941); assay: Inhibition of full length human CDK2 (1 to 298 end residues)/N-terminal GST-tagged CyclinA2 (1 to 432 residues) expressed in baculovirus expression system preincubated for 10 mins followed by substrate and ATP addition by mobility shift assay
[2] = target: CDK6/cyclin D3 (Homo sapiens) (UniProt P30281+Q00534); conditions: dose 100.0 nM, time 10.0 min
Histone deacetylase 8 = target: T2, Histone deacetylase 8 (Homo sapiens, UniProt Q9BY41); assay: Inhibition of HDAC8 (unknown origin) measured after 30 mins by fluorescence microplate reader assay
T2 sequence (Q9BY41 whole entry): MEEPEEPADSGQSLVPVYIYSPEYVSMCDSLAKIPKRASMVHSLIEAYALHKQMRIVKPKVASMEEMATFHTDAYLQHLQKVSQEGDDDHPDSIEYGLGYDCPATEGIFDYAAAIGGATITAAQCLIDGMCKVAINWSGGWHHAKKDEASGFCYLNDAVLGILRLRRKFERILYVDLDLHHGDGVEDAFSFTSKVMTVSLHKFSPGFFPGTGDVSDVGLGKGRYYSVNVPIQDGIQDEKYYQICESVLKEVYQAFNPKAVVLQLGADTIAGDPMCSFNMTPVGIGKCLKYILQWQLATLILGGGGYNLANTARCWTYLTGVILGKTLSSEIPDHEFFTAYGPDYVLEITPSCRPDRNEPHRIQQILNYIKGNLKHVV

Histone deacetylase 4 = Histone deacetylase 4 (Homo sapiens, UniProt P56524); assay: Inhibition of HDAC4 (unknown origin) measured after 30 mins by fluorescence microplate reader assay
Histone deacetylase 4, sequence (P56524 whole entry): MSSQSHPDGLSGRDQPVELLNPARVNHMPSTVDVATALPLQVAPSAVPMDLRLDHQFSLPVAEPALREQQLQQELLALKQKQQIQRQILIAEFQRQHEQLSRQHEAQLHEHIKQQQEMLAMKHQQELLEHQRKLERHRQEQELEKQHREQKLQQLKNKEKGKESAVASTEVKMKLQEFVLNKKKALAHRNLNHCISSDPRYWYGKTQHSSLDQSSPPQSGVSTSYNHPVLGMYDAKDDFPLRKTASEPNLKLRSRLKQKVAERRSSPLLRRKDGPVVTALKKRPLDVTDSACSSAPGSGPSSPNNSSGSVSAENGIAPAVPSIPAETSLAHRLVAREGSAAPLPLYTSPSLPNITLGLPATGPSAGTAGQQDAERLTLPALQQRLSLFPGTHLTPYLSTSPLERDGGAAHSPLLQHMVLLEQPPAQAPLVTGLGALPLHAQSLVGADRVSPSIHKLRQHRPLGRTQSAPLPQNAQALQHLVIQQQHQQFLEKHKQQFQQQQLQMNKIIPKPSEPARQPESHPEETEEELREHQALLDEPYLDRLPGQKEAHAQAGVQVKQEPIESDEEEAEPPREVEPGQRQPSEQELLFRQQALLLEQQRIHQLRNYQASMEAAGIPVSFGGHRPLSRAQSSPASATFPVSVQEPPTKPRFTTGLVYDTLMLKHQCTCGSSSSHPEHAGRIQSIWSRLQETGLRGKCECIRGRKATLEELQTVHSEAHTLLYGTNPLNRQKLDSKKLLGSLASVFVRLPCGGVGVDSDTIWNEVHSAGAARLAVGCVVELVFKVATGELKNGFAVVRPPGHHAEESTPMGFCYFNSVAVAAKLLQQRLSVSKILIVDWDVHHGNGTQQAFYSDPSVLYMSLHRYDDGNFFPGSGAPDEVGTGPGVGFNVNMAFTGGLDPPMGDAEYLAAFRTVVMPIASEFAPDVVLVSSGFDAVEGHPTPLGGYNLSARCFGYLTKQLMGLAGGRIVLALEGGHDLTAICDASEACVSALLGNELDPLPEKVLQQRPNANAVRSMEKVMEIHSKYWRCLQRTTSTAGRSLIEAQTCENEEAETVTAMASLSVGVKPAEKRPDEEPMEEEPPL

Histone deacetylase 11 = target: T3, Histone deacetylase 11 (Homo sapiens, UniProt Q96DB2); assay: Inhibition of recombinant human HDAC11 measured after 30 mins by fluorescence microplate reader assay
T3 sequence (Q96DB2 whole entry): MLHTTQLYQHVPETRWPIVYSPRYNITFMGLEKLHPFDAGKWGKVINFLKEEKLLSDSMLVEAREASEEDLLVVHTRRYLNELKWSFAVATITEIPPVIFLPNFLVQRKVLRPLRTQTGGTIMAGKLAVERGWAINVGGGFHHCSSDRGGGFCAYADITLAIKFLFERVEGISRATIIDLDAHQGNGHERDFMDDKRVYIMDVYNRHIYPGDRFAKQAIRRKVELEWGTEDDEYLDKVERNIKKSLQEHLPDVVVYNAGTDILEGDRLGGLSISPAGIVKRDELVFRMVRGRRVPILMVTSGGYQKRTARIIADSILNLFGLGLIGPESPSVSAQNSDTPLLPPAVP

CDK6/cyclin D3 = CDK6/cyclin D3 (Homo sapiens, UniProt Q00534); assay: Inhibition of full length human CDK6 (1 to 326 end residues)/N-terminal GST-fusion tagged CyclinD3 (1 to 292 residues) expressed in baculovirus expression system preincubated for 10 mins followed by substrate and ATP addition by mobility shift assay
CDK6/cyclin D3, sequence (P30281 whole entry, the tested form may be a part): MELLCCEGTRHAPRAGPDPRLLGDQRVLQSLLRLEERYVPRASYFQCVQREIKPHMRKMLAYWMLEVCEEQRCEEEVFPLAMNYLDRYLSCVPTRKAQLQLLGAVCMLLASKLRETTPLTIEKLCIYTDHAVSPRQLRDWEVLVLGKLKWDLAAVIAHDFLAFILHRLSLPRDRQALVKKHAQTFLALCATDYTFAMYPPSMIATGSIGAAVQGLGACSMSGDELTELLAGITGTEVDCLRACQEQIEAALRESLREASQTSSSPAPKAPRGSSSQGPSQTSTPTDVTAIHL
CDK6/cyclin D3, sequence (Q00534 whole entry, the tested form may be a part): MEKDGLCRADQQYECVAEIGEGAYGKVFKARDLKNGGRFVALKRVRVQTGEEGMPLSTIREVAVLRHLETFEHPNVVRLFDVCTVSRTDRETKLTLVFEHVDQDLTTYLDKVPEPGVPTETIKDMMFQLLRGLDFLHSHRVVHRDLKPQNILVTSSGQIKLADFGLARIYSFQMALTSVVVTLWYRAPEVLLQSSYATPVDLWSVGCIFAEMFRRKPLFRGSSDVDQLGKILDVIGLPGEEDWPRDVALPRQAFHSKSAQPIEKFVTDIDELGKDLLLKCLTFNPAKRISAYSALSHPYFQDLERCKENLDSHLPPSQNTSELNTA

Row | IC50 [1] | IC50 (CDK2/Cyclin A2) | inhibition [2] | IC50 (Histone deacetylase 8) | IC50 (Histone deacetylase 4) | IC50 (Histone deacetylase 11) | IC50 (CDK6/cyclin D3) | Structure (SMILES)
1 | > 5 µM | 0.119 µM | 41.3% | > 5 µM | > 5 µM | > 5 µM | 0.0682 µM | O=C(O)CCCO/N=C1/C(=C2/C(=O)Nc3ccccc32)Nc2ccccc21
2 | 1.87 µM | > 1 µM | 0.8% | > 5 µM | > 100 µM | > 5 µM | > 1 µM | C#CCN1C(=O)/C(=C2\Nc3ccccc3\C2=N/OCCCC(=O)NO)c2ccccc21

Row | Structure (SMILES) | IC50 [1] | IC50 (CDK2/Cyclin A2) | inhibition [2] | IC50 (Histone deacetylase 8) | IC50 (Histone deacetylase 4) | IC50 (Histone deacetylase 11) | IC50 (CDK6/cyclin D3)
3 | O=C(CCCO/N=C1/C(=C2/C(=O)Nc3ccccc32)Nc2ccccc21)NO | 0.129 µM | 0.0609 µM | 76.6% | > 5 µM | > 5 µM | > 5 µM | 0.0272 µM
